For 18 molecules, IC50 and EC50 results are on record in patent US20130209543A1, “ENHANCED TREATMENT REGIMENS USING MTOR INHIBITORS” (Intellikine LLC, priority 2011, published 2013).

Where two headings read alike, the source gives them in different places.

In one experiment the target is PI3K δ (Homo sapiens, UniProt O00329). As to the kind of experiment: PI3K δ kinase assay. In kind it is biochemical.
In the next experiment the target is T1, mTOR (Homo sapiens, UniProt P42345).
T1 construct: purchased Invitrogen
In words: mTOR kinase inhibition assay. In kind it is biochemical.

For another experiment, the system named is PC3. As to the kind of experiment: PC3 proliferation. To be noted: Homo sapiens, PC-3; for EC50: Table 1; for IC50: Table 2. The format is cell-based.
In the next experiment the target is PI3K γ (Homo sapiens, UniProt P48736). As to the kind of experiment: PI3K γ kinase assay. The format is biochemical.
For the next experiment, the target named is PI3K β (Homo sapiens, UniProt P42338). As to the kind of experiment: PI3K β kinase assay. In kind it is biochemical.
In the next experiment the target is PI3K α (Homo sapiens, UniProt P42336). As to the kind of experiment: PI3K α kinase assay. In kind it is biochemical.
PI3K α, sequence (P42336 whole entry, species assumed): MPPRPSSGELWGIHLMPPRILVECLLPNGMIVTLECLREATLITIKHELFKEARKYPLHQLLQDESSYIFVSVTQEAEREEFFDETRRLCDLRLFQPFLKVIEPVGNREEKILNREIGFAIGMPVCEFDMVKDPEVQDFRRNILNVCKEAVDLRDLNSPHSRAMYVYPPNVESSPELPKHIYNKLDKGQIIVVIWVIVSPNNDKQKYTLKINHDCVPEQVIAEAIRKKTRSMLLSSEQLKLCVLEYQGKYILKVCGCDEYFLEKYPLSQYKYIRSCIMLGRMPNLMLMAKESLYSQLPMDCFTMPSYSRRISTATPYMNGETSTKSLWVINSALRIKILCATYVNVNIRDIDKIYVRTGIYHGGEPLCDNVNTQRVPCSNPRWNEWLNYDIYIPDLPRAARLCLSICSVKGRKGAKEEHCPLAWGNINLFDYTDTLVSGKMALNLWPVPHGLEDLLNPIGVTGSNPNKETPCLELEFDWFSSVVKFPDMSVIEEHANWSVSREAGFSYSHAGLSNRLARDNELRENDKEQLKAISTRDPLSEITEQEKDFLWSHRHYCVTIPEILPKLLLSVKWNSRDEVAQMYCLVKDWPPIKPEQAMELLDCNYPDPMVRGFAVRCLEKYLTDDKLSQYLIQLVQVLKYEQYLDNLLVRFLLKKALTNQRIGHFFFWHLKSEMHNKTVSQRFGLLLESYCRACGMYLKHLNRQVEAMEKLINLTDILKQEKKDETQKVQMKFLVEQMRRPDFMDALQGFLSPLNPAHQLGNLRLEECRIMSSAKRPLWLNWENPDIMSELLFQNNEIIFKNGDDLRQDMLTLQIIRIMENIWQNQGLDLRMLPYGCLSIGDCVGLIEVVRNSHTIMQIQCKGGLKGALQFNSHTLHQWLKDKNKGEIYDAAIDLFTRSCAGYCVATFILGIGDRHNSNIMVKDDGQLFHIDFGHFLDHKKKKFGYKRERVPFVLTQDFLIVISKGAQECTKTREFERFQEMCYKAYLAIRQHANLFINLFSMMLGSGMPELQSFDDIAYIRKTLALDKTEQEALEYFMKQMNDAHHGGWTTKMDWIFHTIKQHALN
PI3K α, sequence (P27986 whole entry partner, species assumed): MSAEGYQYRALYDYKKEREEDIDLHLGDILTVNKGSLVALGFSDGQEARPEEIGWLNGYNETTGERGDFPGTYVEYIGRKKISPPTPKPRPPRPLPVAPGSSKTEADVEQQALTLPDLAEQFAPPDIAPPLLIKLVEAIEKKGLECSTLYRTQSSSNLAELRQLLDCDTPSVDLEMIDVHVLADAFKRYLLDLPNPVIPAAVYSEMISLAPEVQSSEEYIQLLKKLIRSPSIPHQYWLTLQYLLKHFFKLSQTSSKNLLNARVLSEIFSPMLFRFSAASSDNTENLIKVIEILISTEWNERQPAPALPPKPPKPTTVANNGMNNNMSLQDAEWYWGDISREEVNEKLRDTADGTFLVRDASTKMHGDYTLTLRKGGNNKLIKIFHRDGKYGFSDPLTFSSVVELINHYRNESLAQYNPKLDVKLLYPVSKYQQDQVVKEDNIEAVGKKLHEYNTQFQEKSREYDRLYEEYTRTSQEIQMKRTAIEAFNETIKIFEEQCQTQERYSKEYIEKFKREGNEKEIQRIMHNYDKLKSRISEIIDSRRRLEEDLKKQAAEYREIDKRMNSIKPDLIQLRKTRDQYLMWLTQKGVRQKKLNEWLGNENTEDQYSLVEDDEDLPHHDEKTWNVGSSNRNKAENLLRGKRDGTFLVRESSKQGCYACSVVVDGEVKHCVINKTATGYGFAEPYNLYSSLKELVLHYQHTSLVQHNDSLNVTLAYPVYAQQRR

PI3K γ, sequence (P48736 whole entry, species assumed): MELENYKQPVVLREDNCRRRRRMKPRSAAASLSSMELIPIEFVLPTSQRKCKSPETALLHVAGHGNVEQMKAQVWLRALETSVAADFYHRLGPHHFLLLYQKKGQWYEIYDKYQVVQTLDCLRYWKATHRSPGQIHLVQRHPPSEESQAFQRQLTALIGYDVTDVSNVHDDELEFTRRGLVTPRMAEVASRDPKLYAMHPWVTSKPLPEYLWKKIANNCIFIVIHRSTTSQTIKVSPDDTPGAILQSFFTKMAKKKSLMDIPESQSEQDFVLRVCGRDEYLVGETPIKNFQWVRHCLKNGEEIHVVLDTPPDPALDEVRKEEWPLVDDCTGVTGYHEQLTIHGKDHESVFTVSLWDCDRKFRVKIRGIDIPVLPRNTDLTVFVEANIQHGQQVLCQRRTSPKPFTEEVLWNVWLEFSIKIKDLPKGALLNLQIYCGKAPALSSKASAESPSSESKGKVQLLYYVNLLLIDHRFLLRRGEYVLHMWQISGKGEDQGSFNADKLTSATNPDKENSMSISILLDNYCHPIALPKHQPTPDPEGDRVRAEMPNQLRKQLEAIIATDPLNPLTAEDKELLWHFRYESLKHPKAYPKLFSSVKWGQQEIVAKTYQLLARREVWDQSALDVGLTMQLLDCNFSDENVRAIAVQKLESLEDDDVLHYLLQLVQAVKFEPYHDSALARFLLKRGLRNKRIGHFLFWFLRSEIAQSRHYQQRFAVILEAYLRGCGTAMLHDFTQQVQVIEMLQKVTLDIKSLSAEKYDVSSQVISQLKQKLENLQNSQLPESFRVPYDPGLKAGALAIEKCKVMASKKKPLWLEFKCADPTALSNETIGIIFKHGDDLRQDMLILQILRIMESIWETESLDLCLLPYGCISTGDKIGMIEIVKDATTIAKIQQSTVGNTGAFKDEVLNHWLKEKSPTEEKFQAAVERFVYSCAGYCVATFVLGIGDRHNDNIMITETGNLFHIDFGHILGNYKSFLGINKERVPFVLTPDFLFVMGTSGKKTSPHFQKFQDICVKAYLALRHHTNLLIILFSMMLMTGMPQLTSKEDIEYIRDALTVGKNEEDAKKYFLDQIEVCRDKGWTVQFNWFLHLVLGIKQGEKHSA
PI3K δ, sequence (O00329 whole entry, species assumed): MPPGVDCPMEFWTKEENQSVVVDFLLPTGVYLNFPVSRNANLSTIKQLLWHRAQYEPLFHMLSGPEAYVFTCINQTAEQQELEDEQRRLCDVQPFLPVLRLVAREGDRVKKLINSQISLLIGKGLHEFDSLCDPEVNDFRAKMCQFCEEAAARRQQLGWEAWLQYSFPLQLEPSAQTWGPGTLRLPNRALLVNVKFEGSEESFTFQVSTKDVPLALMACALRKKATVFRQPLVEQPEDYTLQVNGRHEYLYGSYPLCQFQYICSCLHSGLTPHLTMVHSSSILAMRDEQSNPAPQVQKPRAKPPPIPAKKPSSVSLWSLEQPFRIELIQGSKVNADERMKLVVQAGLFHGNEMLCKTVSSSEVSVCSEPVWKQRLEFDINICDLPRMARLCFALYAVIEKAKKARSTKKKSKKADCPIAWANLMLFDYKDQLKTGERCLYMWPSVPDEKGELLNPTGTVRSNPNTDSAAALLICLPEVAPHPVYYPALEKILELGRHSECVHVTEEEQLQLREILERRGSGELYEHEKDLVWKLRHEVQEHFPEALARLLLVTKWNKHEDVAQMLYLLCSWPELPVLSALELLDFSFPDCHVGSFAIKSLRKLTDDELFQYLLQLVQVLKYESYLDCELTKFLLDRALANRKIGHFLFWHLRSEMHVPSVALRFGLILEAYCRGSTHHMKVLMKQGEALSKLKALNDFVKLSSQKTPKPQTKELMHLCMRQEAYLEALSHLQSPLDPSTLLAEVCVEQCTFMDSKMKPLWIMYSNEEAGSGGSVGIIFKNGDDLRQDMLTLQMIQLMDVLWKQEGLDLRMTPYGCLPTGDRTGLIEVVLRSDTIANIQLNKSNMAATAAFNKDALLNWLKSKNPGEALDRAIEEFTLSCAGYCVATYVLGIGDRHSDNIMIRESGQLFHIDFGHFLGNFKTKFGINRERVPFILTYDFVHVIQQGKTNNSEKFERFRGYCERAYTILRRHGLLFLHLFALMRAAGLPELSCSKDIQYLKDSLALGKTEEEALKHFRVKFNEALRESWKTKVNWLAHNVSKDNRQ
PI3K δ, sequence (P27986 whole entry partner, species assumed): as the sequence (P27986 whole entry partner, species assumed) above
PI3K β, sequence (P42338 whole entry, species assumed): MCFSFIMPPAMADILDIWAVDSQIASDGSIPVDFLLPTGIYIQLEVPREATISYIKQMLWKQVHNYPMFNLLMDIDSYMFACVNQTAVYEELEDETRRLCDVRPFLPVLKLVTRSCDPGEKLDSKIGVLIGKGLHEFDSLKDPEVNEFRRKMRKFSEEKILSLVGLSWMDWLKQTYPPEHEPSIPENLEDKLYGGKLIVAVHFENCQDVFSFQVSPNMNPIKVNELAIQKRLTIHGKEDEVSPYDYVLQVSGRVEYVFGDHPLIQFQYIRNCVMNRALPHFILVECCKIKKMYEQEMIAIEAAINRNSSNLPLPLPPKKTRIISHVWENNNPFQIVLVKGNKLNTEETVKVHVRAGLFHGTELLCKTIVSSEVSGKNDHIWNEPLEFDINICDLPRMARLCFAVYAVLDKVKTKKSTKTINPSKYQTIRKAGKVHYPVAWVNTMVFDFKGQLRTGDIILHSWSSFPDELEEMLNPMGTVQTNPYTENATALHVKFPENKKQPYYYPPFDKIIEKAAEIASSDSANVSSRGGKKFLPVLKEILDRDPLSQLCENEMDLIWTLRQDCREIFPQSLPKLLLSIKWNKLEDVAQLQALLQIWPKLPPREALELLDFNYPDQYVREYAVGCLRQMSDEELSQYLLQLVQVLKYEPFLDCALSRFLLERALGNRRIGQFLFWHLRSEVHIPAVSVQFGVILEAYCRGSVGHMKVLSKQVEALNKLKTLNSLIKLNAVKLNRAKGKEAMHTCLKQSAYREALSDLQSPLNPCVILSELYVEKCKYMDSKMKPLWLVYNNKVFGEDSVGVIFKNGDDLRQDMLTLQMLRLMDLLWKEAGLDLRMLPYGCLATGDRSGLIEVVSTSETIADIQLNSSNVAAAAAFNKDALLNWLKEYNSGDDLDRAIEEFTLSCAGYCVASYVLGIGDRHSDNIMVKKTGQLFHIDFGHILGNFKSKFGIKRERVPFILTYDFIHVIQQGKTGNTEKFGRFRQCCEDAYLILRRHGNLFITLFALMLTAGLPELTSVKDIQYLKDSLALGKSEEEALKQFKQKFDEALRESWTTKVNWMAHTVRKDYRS
PI3K β, sequence (P27986 whole entry partner, species assumed): as the sequence (P27986 whole entry partner, species assumed) above
Description for mTOR: The compounds described herein and any other mTorC1/mTorC2 inhibitors known in the art can be tested against recombinant mTOR (Invitrogen) in an assay containing 50 mM HEPES, pH 7.5, 1 mM EGTA, 10 mM MgCl2, 2.5 mM, 0.01% Tween, 10 μM ATP (2.5 μCi of μ-32P-ATP), and 3 mg/mL BSA. Rat recombinant PHAS-1/4EBP1 (Calbiochem; 2 mg/mL) is used as a substrate. Reactions are terminated by spotting onto nitrocellulose, which is washed with 1M NaCl/1% phosphoric acid (approximately 6 times, 5-10 minutes each). Sheets are dried and the transferred radioactivity quantitated by phosphorimaging.
For instance, one can use Invitrogen's LanthaScreen™ Kinase assay to test the inhibitors of mTOR disclosed herein. This assay is a time resolved FRET platform that measures the phosphorylation of GFP labeled 4EBP1 by mTOR kinase. The kinase reaction is performed in a white 384 well microtitre plate. The total reaction volume is 20 μl per well and the reaction buffer composition is 50 mM HEPES pH7.5, 0.01% Polysorbate 20, 1 mM EGTA, 10 mM MnCl2, and 2 mM DTT. In the first step, each well receives 2 ul of test compound in 20% dimethylsulphoxide resulting in a 2% DMSO final concentration. Next, 8ul of mTOR diluted in reaction buffer is added per well for a 60 ng/ml final concentration. To start the reaction, 10 ul of an ATP/GFP-4EBP1 mixture (diluted in reaction buffer) is added per well for a final concentration of 10 μM ATP and 0.5 μM GFP-4EBP1. The plate is sealed and incubated for 1 hour at room temperature. […] The plate is sealed, incubated for 1 hour at room temperature, and then read on a plate reader set up for LanthaScreen™ TR-FRET. Data is analyzed and IC50s are generated using GraphPad Prism 5.

One may read the IC50 as the concentration that inhibits the measured activity by half. The EC50 is the concentration needed to bring the measured effect to its halfway point. On to `CC(=O)Nc1nc2cc(-c3nn(C(C)C)c4ncnc(N)c34)ccc2o1` [Compound 2], for which the IC50 against PI3K δ (Table 1) is less than 1 µM; on mTOR (Table 1, read-out: mTOR IC50) it was less than 0.1 µM; on PI3K γ (Table 1), less than 1 µM; against PI3K β (Table 1), greater than 10 µM; against PI3K α (Table 1), less than 10 µM. The EC50 in the experiment on PC3 was less than 1 µM.
Consider `CC(C)n1nc(-c2ccc3nc(N)oc3c2)c2c(N)ncnc21` [Compound 4], for which the IC50 against PI3K δ (Table 1) was less than 1 µM; at mTOR (Table 1, read-out: mTOR IC50), less than 1 µM; on PI3K γ (Table 1) it was less than 1 µM; on PI3K β (Table 1), less than 10 µM; at PI3K α (Table 1), less than 10 µM. The molecule also yielded an EC50 with PC3 of less than 10 µM.
For the molecule `Nc1nc2cc(-c3nn(C4CCOCC4)c4ncnc(N)c34)ccc2o1` [Compound 5], the IC50 at PI3K δ (Table 1) was less than 1 µM; on mTOR (Table 1, read-out: mTOR IC50), less than 0.1 µM; against PI3K γ (Table 1), less than 0.1 µM; against PI3K β (Table 1), less than 10 µM; against PI3K α (Table 1), less than 1 µM. The molecule also showed an EC50 with PC3 of less than 0.1 µM.
For `Nc1nc2cc(-c3nn(C4CCC(N5CCOCC5)CC4)c4ncnc(N)c34)ccc2o1` (centres unmarked) [Compound 6], the IC50 at PI3K δ (Table 1) is less than 1 µM; on mTOR (Table 1, read-out: mTOR IC50) it was less than 0.1 µM; at PI3K β (Table 1), greater than 10 µM. The EC50 with PC3 is less than 1 µM.
Consider `CC(=O)N1CCC(n2nc(-c3ccc4oc(N)nc4c3)c3c(N)ncnc32)CC1` [Compound 7], for which the IC50 was less than 1 µM at PI3K δ (Table 1); less than 0.1 µM on mTOR (Table 1, read-out: mTOR IC50); less than 10 µM against PI3K γ (Table 1); less than 10 µM on PI3K β (Table 1); less than 1 µM against PI3K α (Table 1). The same molecule returned an EC50 in the experiment with PC3 of less than 10 µM.
Take `Nc1nc2cc(-c3cn(C4CCOCC4)c4ncnc(N)c34)ccc2o1` [Compound 9]: the IC50 on mTOR (Table 1, read-out: mTOR IC50) is less than 0.1 µM; on PI3K β (Table 1), greater than 10 µM; on PI3K α (Table 1) it was less than 10 µM. The same molecule registered a concentration giving a half-maximal response (EC50) in the experiment with PC3 of less than 0.1 µM.
As to `CC(C)n1nc(-c2ccc3onc(N)c3c2)c2c(N)ncnc21` [Compound 10], at mTOR (Table 1, read-out: mTOR IC50), the IC50 is less than 10 µM. Moreover, the EC50 in the experiment on PC3 was greater than 10 µM.
With `CC(=O)Nc1noc2cc(-c3nn(C(C)C)c4ncnc(N)c34)ccc12` [Compound 11], the IC50 on mTOR (Table 1, read-out: mTOR IC50) was less than 1 µM. For the same molecule, in the experiment with PC3, the EC50 was greater than 10 µM.
For `CC(C)n1nc(-c2ccc3c(N)noc3c2)c2c(N)ncnc21` [Compound 12], at mTOR (Table 1, read-out: mTOR IC50), the IC50 was less than 1 µM. For the same molecule, the EC50 in the experiment with PC3 was greater than 10 µM.
For `Nc1ncnc2c1c(-c1cc3cc(O)ccc3[nH]1)nn2C1CCCC1` [Compound 12], the IC50 was greater than 0.5 µM against PI3K δ; 0.005 to 0.01 µM on mTOR (Table 2, read-out: mTORC IC50); 0.025 to 0.05 µM in the experiment with PC3; greater than 0.5 µM on PI3K β (Table 2); greater than 0.5 µM against PI3K α (Table 2).
`CC(C)n1nc(-c2cc3ccc(O)cc3[nH]2)c2c(N)ncnc21` [Compound 21]: the IC50 is 0.1 to 0.5 µM on PI3K δ (Table 2); 0.025 to 0.05 µM on mTOR (Table 2, read-out: mTORC IC50); 0.1 to 0.5 µM on PI3K γ (Table 2); greater than 0.5 µM at PI3K β (Table 2); 0.1 to 0.5 µM on PI3K α (Table 2).
In the case of `Cc1nc(N)c2c(-c3ccc4oc(N)nc4c3)nn(C(C)C)c2n1` [Compound 21], the IC50 is greater than 10 µM against PI3K δ (Table 1); less than 1 µM on mTOR (Table 1, read-out: mTOR IC50); greater than 10 µM against PI3K γ (Table 1); greater than 10 µM against PI3K β (Table 1); greater than 10 µM on PI3K α (Table 1).
`CC(CO)n1nc(-c2ccc3oc(N)nc3c2)c2c(N)ncnc21` (centres unmarked) [Compound 23]: the IC50 is less than 10 µM against PI3K δ (Table 1); less than 0.1 µM on mTOR (Table 1, read-out: mTOR IC50); less than 10 µM against PI3K γ (Table 1); greater than 10 µM at PI3K β (Table 1); less than 10 µM on PI3K α (Table 1).
Take `CC(C)n1nc(-c2cc3ccc(C#N)cc3[nH]2)c2c(N)ncnc21` [Compound 24]: the IC50 is greater than 0.5 µM at mTOR (Table 2, read-out: mTORC IC50); greater than 0.5 µM with PC3; greater than 0.5 µM at PI3K α (Table 2).
On to `CC(C)n1nc(-c2cc3ccc(C(N)=O)cc3[nH]2)c2c(N)ncnc21` [Compound 25], for which the 50% inhibitory concentration (IC50) on mTOR (Table 2, read-out: mTORC IC50) was 0.1 to 0.5 µM; with PC3, greater than 0.5 µM; against PI3K α (Table 2), greater than 0.5 µM.
Turning to `Nc1nc2cc(-c3nn(C4CC(=O)C4)c4ncnc(N)c34)ccc2o1` [Compound 25], the IC50 on PI3K δ (Table 1) is less than 1 µM; against PI3K γ (Table 1), less than 0.1 µM; at PI3K β (Table 1), less than 10 µM; at PI3K α (Table 1) it was less than 1 µM.
Consider `CC(C)(CO)n1nc(-c2ccc3oc(N)nc3c2)c2c(N)ncnc21` [Compound 27], for which the IC50 was less than 1 µM at PI3K δ (Table 1), greater than 10 µM against PI3K γ (Table 1), greater than 10 µM against PI3K β (Table 1) and less than 10 µM at PI3K α (Table 1).
Regarding `Nc1ncnc2c1c(-c1cc3cc(O)ccc3[nH]1)nn2C1CCC1` [Compound 27], the IC50 at mTOR (Table 2, read-out: mTORC IC50) lay within 0.01 to 0.025 µM; with PC3, 0.1 to 0.5 µM.
